# Patent US20100061982A1, “3-SUBSTITUTED-1H-INDOLE, 3-SUBSTITUTED-1H-PYRROLO[2,3-B]PYRIDINE AND 3-SUBSTITUTED-1H-PYRROLO[3,2-B]PYRIDINE COMPOUNDS, THEIR USE AS MTOR KINASE AND PI3 KINASE INHIBITORS, AND THEIR SYNTHESES” (priority 2008, published 2010)
# How the values were obtained:
# [1] = CACO2 permeability a-b/b-a; format: in vitro ADME; conditions: human, Caco-2; for Papp A→B: a − b (first value of cell), read-out: CACO2 Pe a − b; for Papp B→A: b − a (second value of cell), read-out: CACO2 Pe b − a
# [2] = Microsome Stability (15 min), human; format: in vitro ADME; conditions: microsomes
# [3] = Microsome Stability (15 min), nude mouse; format: in vitro ADME; conditions: microsomes, Phase I (NADPH), read-out: Microsome Stability (15 min) T ½ Phase I nude mouse
# [4] = Microsome Stability (15 min), rat; format: in vitro ADME; conditions: microsomes, Phase I (NADPH), read-out: Microsome Stability (15 min) T ½ Phase I rat
# [5] = Solubility pH 7.4; conditions: pH 7.4, aqueous buffer
# [6] = PAMPA permeability pH 7.4
# [7] = Buffer Stability (37° C.)
# [8] = Plasma Stability (37° C.), rat
# [9] = Plasma Stability (37° C.), nude mouse
# [10] = In vivo blood/plasma and tumor levels of prodrug and metabolites after 50 mg, kg po; conditions: for plasma prodrug, Dosed @ 50 mg, kg po (precursor phenolic compound dosed) / plasma prodrug concentration / tumor prodrug concentration: 50 mg
# [11] = target: PI3K alpha (Homo sapiens, UniProt P42336); assay: PI3K-alpha Fluorescence Polarization Assay; format: biochemical
# Chain of PI3K alpha (P42336 whole entry, species assumed): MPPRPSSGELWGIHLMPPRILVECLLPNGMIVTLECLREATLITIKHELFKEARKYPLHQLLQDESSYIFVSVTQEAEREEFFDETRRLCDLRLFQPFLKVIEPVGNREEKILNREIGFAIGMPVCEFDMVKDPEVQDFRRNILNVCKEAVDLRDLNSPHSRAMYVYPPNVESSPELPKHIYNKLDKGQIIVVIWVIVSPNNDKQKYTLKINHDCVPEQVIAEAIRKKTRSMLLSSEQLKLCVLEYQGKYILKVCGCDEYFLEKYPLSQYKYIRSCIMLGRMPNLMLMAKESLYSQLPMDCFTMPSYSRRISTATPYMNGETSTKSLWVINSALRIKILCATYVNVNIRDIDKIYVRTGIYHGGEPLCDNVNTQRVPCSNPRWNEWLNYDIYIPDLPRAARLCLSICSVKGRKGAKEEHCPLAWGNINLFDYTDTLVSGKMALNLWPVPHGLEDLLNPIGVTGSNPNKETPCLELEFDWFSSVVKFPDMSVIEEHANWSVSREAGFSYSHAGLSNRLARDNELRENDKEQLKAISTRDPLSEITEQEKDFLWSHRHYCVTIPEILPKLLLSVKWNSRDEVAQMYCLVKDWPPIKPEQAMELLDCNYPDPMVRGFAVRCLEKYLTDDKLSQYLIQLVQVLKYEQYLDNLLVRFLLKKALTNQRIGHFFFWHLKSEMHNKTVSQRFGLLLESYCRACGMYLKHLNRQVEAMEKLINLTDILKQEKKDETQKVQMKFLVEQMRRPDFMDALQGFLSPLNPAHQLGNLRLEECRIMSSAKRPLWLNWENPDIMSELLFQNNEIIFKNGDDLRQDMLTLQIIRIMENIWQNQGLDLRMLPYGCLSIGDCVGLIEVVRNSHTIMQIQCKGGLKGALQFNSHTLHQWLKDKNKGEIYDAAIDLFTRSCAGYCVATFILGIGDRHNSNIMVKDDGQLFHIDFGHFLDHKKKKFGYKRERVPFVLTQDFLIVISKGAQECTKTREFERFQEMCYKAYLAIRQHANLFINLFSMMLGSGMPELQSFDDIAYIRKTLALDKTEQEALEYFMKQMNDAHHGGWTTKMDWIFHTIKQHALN
# Chain of PI3K alpha (P27986 whole entry partner, species assumed): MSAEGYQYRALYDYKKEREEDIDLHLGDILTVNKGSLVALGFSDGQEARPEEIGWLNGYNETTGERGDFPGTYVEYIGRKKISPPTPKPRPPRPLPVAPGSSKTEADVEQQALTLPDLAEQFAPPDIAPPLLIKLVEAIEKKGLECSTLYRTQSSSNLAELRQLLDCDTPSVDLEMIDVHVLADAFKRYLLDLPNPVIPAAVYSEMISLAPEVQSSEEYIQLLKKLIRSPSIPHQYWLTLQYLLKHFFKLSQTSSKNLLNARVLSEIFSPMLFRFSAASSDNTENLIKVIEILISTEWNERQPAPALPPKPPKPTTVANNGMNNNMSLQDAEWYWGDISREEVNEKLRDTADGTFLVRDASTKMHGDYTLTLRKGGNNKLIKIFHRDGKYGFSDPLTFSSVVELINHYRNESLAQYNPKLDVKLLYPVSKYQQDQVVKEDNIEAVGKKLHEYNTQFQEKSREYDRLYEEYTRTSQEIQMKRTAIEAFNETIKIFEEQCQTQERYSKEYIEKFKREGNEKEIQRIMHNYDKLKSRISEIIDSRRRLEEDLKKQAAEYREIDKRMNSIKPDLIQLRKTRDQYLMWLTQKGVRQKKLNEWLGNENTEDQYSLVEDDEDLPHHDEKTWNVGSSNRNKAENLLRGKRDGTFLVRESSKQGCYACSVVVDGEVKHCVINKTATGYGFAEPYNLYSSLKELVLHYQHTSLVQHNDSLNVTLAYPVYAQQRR
# [12] = Phase I (NADPH), read-out: Microsome Stability (15 min) T ½ Phase I human
SMILES,Papp A→B [1],Papp B→A [1],"half-life [2, 12]",half-life [4],solubility [5],PAMPA Pe [6],Buffer Stability (37° C.) % Remaining (at 16-23 hours) SGF [7],Buffer Stability (37° C.) % Remaining (at 16-23 hours) SIF [7],Buffer Stability (37° C.) % Remaining (at 16-23 hours) pH 1 [7],Buffer Stability (37° C.) % Remaining (at 16-23 hours) pH 4.5 [7],Buffer Stability (37° C.) % Remaining (at 16-23 hours) pH 6.6 [7],Buffer Stability (37° C.) % Remaining (at 16-23 hours) pH 7.4 [7],Buffer Stability (37° C.) % Remaining (at 16-23 hours) pH 9 [7],Plasma Stability (37° C.) % Remaining (3-3.5 hours) rat [8],Plasma Stability (37° C.) % Remaining (3-3.5 hours) nude mouse [9],IC50 [11],half-life [3],plasma prodrug concentration ([10]; 0.5 h),plasma prodrug concentration ([10]; 2 h),tumor prodrug concentration ([10]; 0.5 h),other results
"COc1ccc2c(c1)c(/C=C1\Oc3cc(O)cc(O)c3C1=O)cn2CCCN(C)C [(2Z)-2-({1-[3-(dimethylamino)propyl]-5-methoxy-1H-indol-3-yl}methylene)-4,6-dihydroxy-1-benzofuran-3(2H)-one]",3.9 ×10⁻⁶ cm/s,27 ×10⁻⁶ cm/s,> 30 min,6 min,33 µg/mL,0 10e−6 cm/s,95%,57%,99%,93%,83%,82%,94%,77%,78%,,,,,,"half-life ([2]; value after the slash in Table VIc, read-out: Microsome Stability (15 min) T ½ human, second value of cell): 28 min; half-life ([3]; nude, mouse): 15 min; plasma prodrug, Dosed @ 50 mg, kg po (precursor phenolic compound dosed) ([10]; 1 h conc.): 23; plasma prodrug, Dosed @ 50 mg, kg po (precursor phenolic compound dosed) ([10]; 4 h conc.): 7"
"COc1ccc2c(c1)c(/C=C1\Oc3cc(OC(=O)N(C)c4ccccc4)cc(OC(=O)N(C)c4ccccc4)c3C1=O)cn2CCCN(C)C [Example 2, (2Z)-2-({1-[3-(dimethylamino)propyl]-5-methoxy-1H-indol-3-yl}methylene)-3-oxo-2,3-dihydro-1-benzofuran-4,6-diyl bis[methyl(phenyl)carbamate]]",0.04 ×10⁻⁶ cm/s,0.08 ×10⁻⁶ cm/s,24 min,> 30 min,,0 10e−6 cm/s,100%,100%,100%,100%,100%,100%,100%,22%,10%,> 10 µM,> 30 min,"486 ng, ml","757 ng, ml",,
"COc1ccc2c(c1)c(/C=C1\Oc3cc(OC(=O)N(C(C)C)C(C)C)cc(OC(=O)N(C(C)C)C(C)C)c3C1=O)cn2CCCN(C)C [Example 4, (2Z)-2-({1-[3-(dimethylamino)propyl]-5-methoxy-1H-indol-3-yl}methylene)-3-oxo-2,3-dihydro-1-benzofuran-4,6-diyl bis(diisopropylcarbamate)]",0.16 ×10⁻⁶ cm/s,0.06 ×10⁻⁶ cm/s,6 min,> 30 min,,0 10e−6 cm/s,100%,100%,100%,100%,,100%,100%,65%,64%,> 10 µM,21 min,"411 ng, ml","435 ng, ml",,
"COc1ccc2c(c1)c(/C=C1\Oc3cc(OC(=O)N(C)C)cc(OC(=O)N(C)C)c3C1=O)cn2CCCN(C)C [Example 8, (2Z)-2-({1-[3-(dimethylamino)propyl]-5-methoxy-1H-indol-3-yl}methylene)-3-oxo-2,3-dihydro-1-benzofuran-4,6-diyl bis(dimethylcarbamate)]",4.82 ×10⁻⁶ cm/s,7.22 ×10⁻⁶ cm/s,15 min,> 30 min,28 µg/mL,4.53 10e−6 cm/s,100%,100%,100%,100%,100%,100%,91%,50%,7%,> 10 µM,23 min,"3122, ng, ml","3876, ng, ml","2170, ng, ml","tumor prodrug concentration ([10]; 2 h): 4820, ng, ml; tumor prodrug concentration ([10]; 6 h): 1482, ng, ml; plasma prodrug concentration ([10]; 6 h (third value)): 2170, ng, ml; plasma prodrug concentration ([10]; 10 h): 497 ng, ml; tumor prodrug concentration ([10]; 10 h): 556 ng, ml; plasma prodrug concentration ([10]; 24 h): 3 ng, ml; tumor prodrug concentration ([10]; 24 h): bql; blood 4-OH, 6-OR mono prodrug concentration (metabolite) ([10]; prodrug 50 mg, 24 h): bql; blood 6-OH, 4-OR mono prodrug concentration (metabolite) ([10]; prodrug 50 mg, 24 h): bql; tumor 4-OH, 6-OR mono prodrug concentration (metabolite) ([10]; prodrug 50 mg, 24 h): bql; tumor 6-OH, 4-OR mono prodrug concentration (metabolite) ([10]; prodrug 50 mg, 24 h): bql; blood precursor phenolic cpd concentration (metabolite) ([10]; prodrug 50 mg, all time points (0.5, 2, 6, 10, 24 h)): bql at all"
"COc1ccc2c(c1)c(/C=C1\Oc3cc(OC(=O)N(C)C)cc(OC(=O)N(C)C)c3C1=O)c(C)n2CCN1CCN(C)CC1 [Example 12, (2Z)-2-({5-methoxy-2-methyl-1-[2-(4-methylpiperazin-1-yl)ethyl]-1H-indol-3-yl}methylene)-3-oxo-2,3-dihydro-1-benzofuran-4,6-diyl bis(dimethylcarbamate)]",1.98 ×10⁻⁶ cm/s,3.36 ×10⁻⁶ cm/s,9 min,23 min,40 µg/mL,0.78 10e−6 cm/s,100%,100%,100%,100%,100%,100%,90%,71%,32%,> 10 µM,23 min,"2444, ng, ml","3871, ng, ml","344, ng, ml","tumor prodrug concentration ([10]; 2 h): 1278, ng, ml; tumor prodrug concentration ([10]; 6 h): 629 ng, ml; plasma prodrug concentration ([10]; 6 h (third value)): 2027, ng, ml; plasma prodrug concentration ([10]; 10 h): 443 ng, ml; tumor prodrug concentration ([10]; 10 h): 69 ng, ml; plasma prodrug concentration ([10]; 24 h): 1 ng, ml; tumor prodrug concentration ([10]; 24 h): bql; tumor precursor phenolic cmpd concentration (metabolite) ([10]; prodrug 50 mg, 6 h (third value)): bql; blood 4-OH, 6-OR mono prodrug concentration (metabolite) ([10]; prodrug 50 mg, 24 h): bql; blood 6-OH, 4-OR mono prodrug concentration (metabolite) ([10]; prodrug 50 mg, 24 h): bql; tumor 6-OH, 4-OR mono prodrug concentration (metabolite) ([10]; prodrug 50 mg, 24 h): bql"
